Experimental data as given in article PMC7998748, “A Unique Acylated Flavonol Glycoside from Prunus persica (L.) var. Florida Prince: A New Solid Lipid Nanoparticle Cosmeceutical Formulation for Skincare” (Antioxidants, 2021).

How the values were obtained:
[1] = β-carotene bleaching assay; details: after 30 min
Text: (§1) The DPPH assay was peformed using the method of Yardpiroon et al., Vitamin C was used as a positive control. The ABTS assay followed the method of Re et al., [40], Vitamin C was used as a standard. The β-carotene bleaching assay used the method described by Soulef et al., [14] in the presence of the positive control BHT. The value for each test sample was presented as the inhibition curve at 50% or IC50.

[2] = molecular target: mushroom tyrosinase (Agaricus bisporus, UniProt C7FF04); experiment: Anti-tyrosinase assay; type: biochemical; details: 300 μg/mL tested samples; positive control kojic acid (methods: 1.4 mg/mL)
Description: For the anti-tyrosinase assay, 5600 units/mL of mushroom tyrosinase was incubated with each of the tested extracts or 1.4 mg/mL kojic acid (standard inhibitor) for 15 min at 37 °C before adding 1 mM L-DOPA as a substrate. The absorbance of the formed dopachrome was measured at 475 nm. The tested samples were used in a concentration range of 75–500 µg/mL.

[3] = molecular target: T1, human leukocyte elastase (Homo sapiens, UniProt P08246); experiment: Anti-elastase assay; type: biochemical
T1 sequence (P08246 30-267): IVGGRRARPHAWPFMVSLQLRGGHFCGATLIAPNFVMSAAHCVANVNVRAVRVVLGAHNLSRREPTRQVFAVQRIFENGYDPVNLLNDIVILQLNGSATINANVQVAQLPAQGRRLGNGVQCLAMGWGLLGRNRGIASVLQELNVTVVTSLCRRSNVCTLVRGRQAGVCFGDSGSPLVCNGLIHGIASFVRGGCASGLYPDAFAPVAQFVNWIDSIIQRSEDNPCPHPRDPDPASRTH
Description: The anti-aging and skin whitening activities were assessed following the methods reported by Mostafa et al.. For the anti-elastase assay, 1 μg/mL of human leukocyte elastase was incubated with HEPES buffer pH 7.5 and each of the tested extracts or 1.4 mg/mL N-Methoxysuccinyl-Ala-Ala-Pro-chloromethyl ketone (standard inhibitor) in a 96-well plate for 20 min at room temperature before the addition of 100 μL of 1 mM N-Methoxysuccinyl-Ala-Ala-Pro-Val-p-nitroanilide as a substrate. After 40 min incubation the absorbance was measured at 405 nm with a well devoid of extract/inhibitor serving as a blank. The tested samples were used in a concentration range of 25–300 µg/mL.

[4] = ABTS assay
Text: as §1

[5] = DPPH assay
Text: as §1

[6] = MTT cytotoxicity in human keratinocytes; type: cell-based; details: human keratinocytes cell line, 1 mg/mL, read-out: cell viability (cells survived)
Description: (§2) The human keratinocytes cell line was obtained from VACSERA CO. (The Egyptian Company for the Production of Vaccines, Sera, and Drugs, Giza, Egypt). The MTT assay was done for PPEE and PPEE-SLNs according to the method of Mostafa et al..
(§3) The MTT assay was used to test whether PPEE, PPEE-SLNs, and KDPAG could affect cell viability using human keratinocytes. Different concentrations of PPEE, PPEE-SLNs, extract-free-SLNs and KDPAG at 0.0625– 1mg/mL were incubated over 24 h with a human keratinocytes cell line (Figure 2). […] However, after treatment with 1 mg/mL of PPEE, PPEE-SLNS, Extract-free-SLNs, and KDPAG over 24 h, a significant reduction in cell viability of human keratinocytes was observed, 93%, 90%, 95%, and 89% of the cells survived, respectively. Thus, concentrations of PPEE, PPEE-SLNs, and KDPAG equal to or lower than 0.5 mg/mL were used for subsequent studies.

[7] = tested on: human keratinocytes cell line; experiment: MTT cytotoxicity in human keratinocytes; type: cell-based; details: 0.0625–0.5 mg/mL, 24 h
Description: as §2, §3

[8] = molecular target: collagenase type 1 from Clostridium histolyticum (Hathewaya histolytica (Clostridium histolyticum), UniProt Q46085); experiment: biochemical; details: read-out: Anti-Collagenase % Inhibition
collagenase type 1 from Clostridium histolyticum, sequence (Q46085 41-1021 limits assumed): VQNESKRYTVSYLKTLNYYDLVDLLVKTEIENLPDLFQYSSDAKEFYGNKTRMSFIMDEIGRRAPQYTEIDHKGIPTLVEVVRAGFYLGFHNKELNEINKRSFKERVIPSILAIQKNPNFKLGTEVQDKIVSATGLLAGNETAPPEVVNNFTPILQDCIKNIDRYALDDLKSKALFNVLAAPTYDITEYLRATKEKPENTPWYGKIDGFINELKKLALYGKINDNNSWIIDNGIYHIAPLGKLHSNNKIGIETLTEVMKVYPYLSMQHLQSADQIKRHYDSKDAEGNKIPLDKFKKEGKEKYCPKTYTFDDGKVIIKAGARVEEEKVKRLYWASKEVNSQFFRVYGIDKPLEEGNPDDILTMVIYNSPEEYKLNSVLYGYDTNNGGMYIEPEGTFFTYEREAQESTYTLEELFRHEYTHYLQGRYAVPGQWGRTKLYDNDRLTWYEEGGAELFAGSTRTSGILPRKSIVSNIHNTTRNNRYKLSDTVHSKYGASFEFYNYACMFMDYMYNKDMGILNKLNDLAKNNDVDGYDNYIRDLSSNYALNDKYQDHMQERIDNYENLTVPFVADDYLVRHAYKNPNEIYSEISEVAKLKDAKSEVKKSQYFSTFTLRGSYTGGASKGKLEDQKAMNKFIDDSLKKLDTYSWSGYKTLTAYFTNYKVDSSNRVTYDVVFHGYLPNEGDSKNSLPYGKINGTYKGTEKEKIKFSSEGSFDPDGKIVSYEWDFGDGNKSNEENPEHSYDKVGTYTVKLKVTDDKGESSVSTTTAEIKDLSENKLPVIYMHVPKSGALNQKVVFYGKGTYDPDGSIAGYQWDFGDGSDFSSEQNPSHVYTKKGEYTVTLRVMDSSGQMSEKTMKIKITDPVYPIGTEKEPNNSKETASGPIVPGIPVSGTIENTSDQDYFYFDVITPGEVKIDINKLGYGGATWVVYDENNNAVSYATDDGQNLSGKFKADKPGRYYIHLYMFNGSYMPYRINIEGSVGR

mushroom tyrosinase, sequence (G1K3P4 entry or part of it): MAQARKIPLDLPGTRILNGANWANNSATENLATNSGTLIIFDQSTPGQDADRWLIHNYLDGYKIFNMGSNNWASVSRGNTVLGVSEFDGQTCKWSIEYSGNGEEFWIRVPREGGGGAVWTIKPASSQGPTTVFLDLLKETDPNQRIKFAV
mushroom tyrosinase, sequence (C7FF04 1-392): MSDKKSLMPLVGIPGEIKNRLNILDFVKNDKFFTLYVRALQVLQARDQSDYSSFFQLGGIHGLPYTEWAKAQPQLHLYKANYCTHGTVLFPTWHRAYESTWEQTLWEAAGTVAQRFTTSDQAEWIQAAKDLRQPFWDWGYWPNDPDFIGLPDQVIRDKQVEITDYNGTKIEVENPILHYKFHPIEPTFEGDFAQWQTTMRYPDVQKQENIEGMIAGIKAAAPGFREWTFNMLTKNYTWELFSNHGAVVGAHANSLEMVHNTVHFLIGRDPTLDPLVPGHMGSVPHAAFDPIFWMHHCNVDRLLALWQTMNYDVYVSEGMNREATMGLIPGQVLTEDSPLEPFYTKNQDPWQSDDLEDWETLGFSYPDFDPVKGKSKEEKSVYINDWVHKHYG

SMILES | β-carotene assay IC50 [1] | inhibition at 300 µg/mL [2] | inhibition at 1400 µg/mL ([3]; 300 μg/mL tested samples, positive control N-(Methoxysuccinyl)-Ala-Ala-Pro-Val-chloromethyl ketone (methods: 1.4 mg/mL)) | IC50 ([3]; positive control N-(Methoxysuccinyl)-Ala-Ala-Pro-Val-chloromethyl ketone) | ABTS IC50 [4] | DPPH IC50 [5] | viability at 24 h, 1 mg/mL [6] | reduction in cell viability [7] | inhibition at 1400 µg/mL [8]
Cc1cc(C(C)(C)C)c(O)c(C(C)(C)C)c1 [BHT, reference compound] | 8.06 ± 0.67 µg/mL |  |  |  |  |  |  |  | 
O=C(Cc1ccc(O)c(O)c1)OC[C@H]1O[C@@H](Oc2c(-c3ccc(O)cc3)oc3cc(O)cc(O)c3c2=O)[C@H](O)[C@@H](O)[C@@H]1O [KDPAG, kaempferol 3-O-β-^4C1-(6″-O-3,4-dihydroxyphenylacetyl glucopyranoside)] | 1.73 ± 0.05 µg/mL | 85.7 ± 2.1% | 89.2 ± 1.26% | 83.2 µM | 3.91 ± 1.43 µg/mL | 6.35 ± 3.40 µg/mL | 89% | no observed significant reduction | 91.1 ± 2.45%
O=C1O[C@H]([C@@H](O)CO)C(O)=C1O [vitamin C, reference compound] |  |  |  |  | 0.96 ± 0.02 µg/mL | 2 ± 0.01 µg/mL |  |  | 
